# Tests used:
# [1] = system: panel of 1,151 cancer cell lines; settings: in 52% of 1,151 cancer cell lines; cited from earlier work
# CDK12 wt/CycK = target: T1, CDK12 wt/CycK (Homo sapiens, UniProt Q9NYV4); assay: Radiometric protein kinase assay (33PanQinase), assay condition 2, thiol containing conditions; type: biochemical; settings: thiol containing conditions (1.2 mM DTT), ATP 0.3 μM
# T1 construct: either as full-length or enzymatically active fragments
# Experimental: Example 1—Assay condition 2 (thiol containing conditions)
# Objective: The IC50 profile of test compounds was determined using protein kinases. IC50 values were measured by testing 10 concentrations (1×10^−04M, 3×10^−05M, 1×10^−05M, 3×10^−06M, 1×10^−06M, 3×10^−07M, 1×10^−07M, 3×10^−08M, 1×10^−08M, and 3×10^−09M) of each compound in singlicate.
# Test compounds: The compounds were provided as pre-weighed powders in vials. The compounds were dissolved to 1×10^−02M by adding DMSO. 100 μl of each of the resulting stock solutions were transferred into column 2 of four 96 well “master plates”
# Prior to testing, the 1×10^−02M stock solutions in column 2 of the master plates were subjected to a serial, semi-logarithmic dilution using 100% DMSO as a solvent. […] Column 1 and 7 were filled with 100% DMSO as controls. Subsequently, 2×10 μl from each well of the serial diluted copy plates were aliquoted with a 96 channel pipettor into two identical sets of “compound dilution plates”.
# In the process, 90 μl H2O were added to each well of a set of compound dilution plates. To minimize potential precipitation, the H2O was added to each plate only a few minutes before the transfer of the compound solutions into the assay plates. Each plate was shaken thoroughly, resulting in a “compound dilution plate/ 10% DMSO”.
# For the assays, 5 μl solution from each well of the compound dilution plates/10% DMSO were transferred into the assay plates. The final volume of the assay was 50 μl. All compounds were tested at 10 final assay concentrations in the range from 1×10^−04M to 3×10^−09M, in singlicate. The final DMSO concentration in the reaction cocktails was 1% in all cases.
# Recombinant protein kinases: All protein kinases were expressed in Sf9 insect cells or in E.coli as recombinant GST-fusion proteins or His-tagged proteins, either as full-length or enzymatically active fragments. All kinases were produced from human cDNAs and purified by either GSH-affinity chromatography or immobilized metal. Affinity tags were removed from a number of kinases during purification. The purity of the protein kinases was examined by SDS-PAGE/Coomassie staining, the identity was checked by mass spectroscopy.
# Protein kinase assay: A radiometric protein kinase assay (^33PanQinase® Activity Assay) was used for measuring the kinase activity. All kinase assays were performed in 96-well FlashPlates™ from PerkinElmer (Boston, MA, USA) in a 50 μl reaction volume. The reaction cocktail was pipetted in four steps in the following order: • 20 μl of assay buffer (standard buffer) • 5μl of ATP solution (in H2O) • 5μl of test compound (in 10% DMSO) • 20 μl enzyme/substrate mix
# The assay for all protein kinases contained 70 mM HEPES-NaOH pH 7.5, 3 mM MgCl2, 3 mM MnCl2, 3 μM Na-orthovanadate, 1.2 mM DTT, 50 μg/ml PEG20000, ATP (variable concentrations, corresponding to the apparent ATP-K. of the respective kinase), [γ-^33P]-ATP (approx. 9×10^05cpm per well), protein kinase, and substrate.
# The following amounts of enzyme and substrate were used per well:
# The reaction cocktails were incubated at 30° C. for 60 minutes. The reaction was stopped with 50 μl of 2% (v/v) H3PO4, plates were aspirated and washed two times with 200 μl 0.9% (w/v) NaCl. Incorporation of ^33Pi was determined with a microplate scintillation counter (Microbeta, Wallac). All assays were performed with a BeckmanCoulter/SAGIANTM Core System.
# Evaluation of raw data: The median value of the counts in column 1 (n=8) of each assay plate was defined as “low control”. This value reflects unspecific binding of radioactivity to the plate in the absence of a protein kinase but in the presence of the substrate. The median value of the counts in column 7 of each assay plate (n=8) was taken as the “high control”, i.e. full activity in the absence of any inhibitor. The difference between high and low control was taken as 100% activity. […]
# T1 sequence (Q9NYV4 whole entry, the tested form may be a part): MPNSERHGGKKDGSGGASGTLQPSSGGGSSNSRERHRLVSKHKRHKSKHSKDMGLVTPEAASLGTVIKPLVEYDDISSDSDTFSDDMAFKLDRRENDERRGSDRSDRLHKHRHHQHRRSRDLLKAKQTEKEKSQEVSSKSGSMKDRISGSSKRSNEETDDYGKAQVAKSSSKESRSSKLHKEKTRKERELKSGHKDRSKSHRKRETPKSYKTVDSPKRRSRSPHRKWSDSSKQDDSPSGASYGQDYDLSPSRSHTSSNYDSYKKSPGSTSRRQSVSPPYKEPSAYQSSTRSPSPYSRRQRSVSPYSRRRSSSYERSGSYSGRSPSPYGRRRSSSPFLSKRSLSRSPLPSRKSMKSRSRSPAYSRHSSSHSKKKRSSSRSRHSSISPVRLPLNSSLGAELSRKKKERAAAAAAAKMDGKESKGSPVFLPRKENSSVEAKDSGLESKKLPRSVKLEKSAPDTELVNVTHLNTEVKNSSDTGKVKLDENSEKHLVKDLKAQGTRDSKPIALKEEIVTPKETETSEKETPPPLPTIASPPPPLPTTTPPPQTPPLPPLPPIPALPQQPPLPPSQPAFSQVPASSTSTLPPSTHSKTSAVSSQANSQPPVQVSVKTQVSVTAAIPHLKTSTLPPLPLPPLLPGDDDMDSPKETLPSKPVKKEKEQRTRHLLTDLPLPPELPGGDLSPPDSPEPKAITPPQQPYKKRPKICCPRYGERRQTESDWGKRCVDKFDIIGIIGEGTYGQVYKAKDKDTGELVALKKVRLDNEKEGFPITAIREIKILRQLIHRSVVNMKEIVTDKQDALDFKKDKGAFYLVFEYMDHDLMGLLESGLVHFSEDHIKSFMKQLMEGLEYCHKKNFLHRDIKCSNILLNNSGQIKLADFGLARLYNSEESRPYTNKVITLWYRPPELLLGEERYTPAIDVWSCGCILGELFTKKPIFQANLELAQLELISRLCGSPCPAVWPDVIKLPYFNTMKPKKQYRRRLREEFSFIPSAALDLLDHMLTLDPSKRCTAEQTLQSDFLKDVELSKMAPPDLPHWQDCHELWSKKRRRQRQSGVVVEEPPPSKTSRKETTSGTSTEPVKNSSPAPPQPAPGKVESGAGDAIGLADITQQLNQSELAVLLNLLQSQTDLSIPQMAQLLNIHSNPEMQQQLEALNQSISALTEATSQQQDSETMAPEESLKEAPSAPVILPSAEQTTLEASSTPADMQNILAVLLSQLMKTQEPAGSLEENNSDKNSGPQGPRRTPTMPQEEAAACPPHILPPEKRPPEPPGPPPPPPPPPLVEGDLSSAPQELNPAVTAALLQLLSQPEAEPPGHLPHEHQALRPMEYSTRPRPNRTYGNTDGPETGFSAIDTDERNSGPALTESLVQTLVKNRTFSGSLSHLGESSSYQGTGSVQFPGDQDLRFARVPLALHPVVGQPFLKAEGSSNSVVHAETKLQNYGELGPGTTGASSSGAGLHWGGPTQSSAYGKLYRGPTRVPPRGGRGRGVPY
# T1 sequence (O75909 whole entry partner, the tested form may be a part): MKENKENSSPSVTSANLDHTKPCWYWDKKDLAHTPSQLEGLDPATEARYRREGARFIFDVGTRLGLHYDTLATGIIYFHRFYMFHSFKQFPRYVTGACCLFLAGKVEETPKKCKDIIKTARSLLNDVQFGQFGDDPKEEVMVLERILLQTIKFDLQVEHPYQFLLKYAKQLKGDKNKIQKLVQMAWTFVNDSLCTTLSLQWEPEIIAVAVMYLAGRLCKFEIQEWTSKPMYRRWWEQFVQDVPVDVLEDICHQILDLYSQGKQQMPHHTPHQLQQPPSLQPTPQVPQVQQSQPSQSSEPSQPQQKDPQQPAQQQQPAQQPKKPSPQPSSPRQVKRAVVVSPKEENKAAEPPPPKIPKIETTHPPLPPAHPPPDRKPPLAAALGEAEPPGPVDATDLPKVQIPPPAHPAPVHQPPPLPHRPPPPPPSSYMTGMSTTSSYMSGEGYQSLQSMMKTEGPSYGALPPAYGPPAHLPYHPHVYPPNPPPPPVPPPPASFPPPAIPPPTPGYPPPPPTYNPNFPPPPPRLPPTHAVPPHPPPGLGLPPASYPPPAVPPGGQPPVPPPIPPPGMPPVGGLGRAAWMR
Structure (SMILES),IC50 [1] [nM],IC50 (CDK12 wt/CycK) [nM]
CN(C)C/C=C/C(=O)Nc1ccc(C(=O)Nc2cccc(Nc3ncc(Cl)c(-c4c[nH]c5ccccc45)n3)c2)cc1 [THZ1],< 200,–
"C=CC(=O)N(C)c1ccc2c(N3CC[C@@H](Nc4ncc(C#N)cn4)C3)nc(C3=CCN(C)CC3)cc2c1 [Example 42, (R)—N-(1-(3-((5-cyanopyrimidin-2-yl)amino)pyrrolidin-1-yl)-3-(1-methyl-1,2,3,6-tetrahydropyridin-4-yl)isoquinolin-6-yl)-N-methylacrylamide]",–,≤ 100
"C=CC(=O)N(C)c1ccc2c(N3CC[C@@H](Nc4ncc(C#N)cn4)C3)nc(N3CCN(C)CC3)nc2c1 [Example 41, (R)—N-(4-(3-((5-cyanopyrimidin-2-yl)amino)pyrrolidin-1-yl)-2-(4-methylpiperazin-1-yl)quinazolin-7-yl)-N-methylacrylamide]",–,≤ 100
"Cc1nc(N2CC[C@@H](Nc3ncc(Cl)c(-c4cnn5ccccc45)n3)C2)c2ccc(NC(=O)/C=C/CN(C)C)cc2n1 [Example 35, (R,E)—N-(4-(3-((5-chloro-4-(pyrazolo[1,5-a]pyridin-3-yl)pyrimidin-2-yl)amino)pyrrolidin-1-yl)-2-methylquinazolin-7-yl)-4-(dimethylamino)but-2-enamide]",–,≤ 100
"C=CC(=O)Nc1ccc2c(N3CC[C@@H](Nc4ncc(C#N)cn4)C3)nc(OCC(F)(F)F)nc2c1 [Example 32, (R)—N-(4-(3-((5-cyanopyrimidin-2-yl)amino)pyrrolidin-1-yl)-2-(2,2,2-trifluoroethoxy)quinazolin-7-yl)acrylamide]",–,100 to 1000

# Source: patent publication US20220388990A1, “INHIBITORS OF CYCLIN-DEPENDENT KINASES” (Kinnate Biopharma Inc., priority 2019, published 2022)
